Results on one molecule are retold here after patent US6346610B1, “Process for preparing antifungal V-28-3M” (Ajinomoto Co., Ltd., priority 1997, dated 2002).

SMILES strings stand for the structures. Read-outs that look alike come from different tables or passages of the source.

The nature of data set [1]: antimycotic activity of V-28-3M. The following applies: V-28-3M obtained by Example 5, compared with V-28-3M described in JP-A-3-81225.
For data set [2] the following is noted: background statement, JP-A-63-218686 and JP-A-3-81225; cited from earlier work.
In a further data set the test system is animal cells. The conditions noted are these: background statement, JP-A-63-218686 and JP-A-3-81225; cited from earlier work.

In the case of `COC(=O)C1C(O)CC2(O)CC(O)CC(O)CC(O)CC(O)CC(=O)CC(O)CC(=O)OC(C(C)CCC(O)CC(=O)c3ccc(N)cc3)C(C)\C=C/C=C\C=C\C=C\C=C\C=C\C=C\C(OC3OC(C)C(O)C(N)C3O)CC1O2` (stereo not drawn) [Example V-28-3M, V-28-3M], the figures for the antimycotic activity entry in data set [1] and in data set [2] were “the same result was also obtained” and “high”, respectively. In addition, the “toxicity for animal cells” value in the data set on animal cells is “low”.
